Laboratory results: BindingDB's records for doi:10.1021/acsmedchemlett.0c00533 (Reaction Biology, 2021)

Target: Mitogen-activated protein kinase 14 (Homo sapiens, UniProt Q16539)
Test: Inhibition of P38alpha (unknown origin)

Mitogen-activated protein kinase 14, sequence (Q16539 whole entry): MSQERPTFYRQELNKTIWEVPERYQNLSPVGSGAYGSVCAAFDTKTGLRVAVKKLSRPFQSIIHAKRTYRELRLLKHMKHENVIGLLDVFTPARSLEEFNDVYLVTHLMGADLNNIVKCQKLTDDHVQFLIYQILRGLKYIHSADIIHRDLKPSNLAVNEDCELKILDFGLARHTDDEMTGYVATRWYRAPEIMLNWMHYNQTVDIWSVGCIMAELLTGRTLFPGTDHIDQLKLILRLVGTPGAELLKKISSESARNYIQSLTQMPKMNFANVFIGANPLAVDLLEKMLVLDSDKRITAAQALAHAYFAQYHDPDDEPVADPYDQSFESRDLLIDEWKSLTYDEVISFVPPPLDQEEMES

IC50: > 20 µM
SMILES: O=C(Nc1cnn(-c2csc(C(=O)NC3CNC3)c2)c1)Nc1ccccc1Cl
